Test results published in ChEMBL document CHEMBL1123971, “Synthesis, platelet aggregation inhibitory activity, and in vivo antithrombotic activity of new 1,4-dihydropyridines” (J Med Chem, 1988).

Key:
Cavia porcellus = organism: Cavia porcellus; test: Effect on guinea pig artia (beats/min), at the a dose of 10e-8 M; assay type: functional
Felis catus [1] = test: Effect of intravenous infusion on diastolic pressure in Anesthetized cats at a dose of 2.25 mg/kg at 15 min; assay type: functional
Felis catus [2] = test: Effect of intravenous infusion on diastolic pressure in Anesthetized cats at a dose of 0.75 mg/kg at 5 min; assay type: functional
Felis catus [3] = test: Effect on cardiac frequency in Anesthetized cats at a dose of 2.25 mg/kg at 15 min; assay type: functional, Heart
Felis catus [4] = test: Effect of intravenous infusion on respiration frequency in Anesthetized cats at a dose of 1.50 mg/kg at 10 min; assay type: functional; settings: dose 1.5 mg/kg
Felis catus [5] = test: Effect of intraperitoneal infusion on respiration frequency in Anesthetized cats at a dose of 200 mg/kg at 30 min; assay type: functional
Felis catus [6] = test: Effect of intraperitoneal infusion on systolic pressure in Anesthetized cats at a dose of 200 mg/kg at 180 min; assay type: functional
Felis catus [7] = test: Effect of intravenous infusion on diastolic pressure in Anesthetized cats at a dose of 0.30 mg/kg at 2 min; assay type: functional; settings: dose 0.3 mg/kg

With `CCO/C(O)=C1\C(C)=NC(C)=C(C(=O)OCCN2C(=O)c3ccccc3S2(=O)=O)C1C` (centres undefined) the Beats/min (Cavia porcellus) was 176, the Control (Cavia porcellus) was 96.3% and the Arterial pressure (Felis catus [1]) was 110 mmHg. For the same compound, the Arterial pressure (Felis catus [2]) was 112 mmHg, the Cardiac frequency (Felis catus [3]) was 217 beats min-1 and the Respiratory frequency (Felis catus [4]) was 18 r.p.m. The Respiratory frequency (Felis catus [5]) was 13 r.p.m, the Arterial pressure (Felis catus [6]) was 145 mmHg and the Arterial pressure (Felis catus [7]) was 115 mmHg.
